TGI data for two compounds are collected here from PubChem BioAssay (NCI).

Among the test systems are LXFL 529 NSCLC; HCT-116 colon; HCT-15 colon; DMS 114 small cell lung; DMS 273 small cell lung; XF 498 CNS; OVCAR-4 ovarian; DLD-1 colon; RXF 393 renal; SNB-78 CNS; SNB-75 CNS; SK-MEL-28 melanoma; KM20L2 colon; MALME-3M melanoma; HOP-18 NSCLC; M19-MEL melanoma; HT29 colon.
What all share (assay): inhibition of tumour cell growth, NCI panel, 48 h

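How tested: cells in 96-well plates exposed to compound for 48 hours at five concentrations. TGI: concentration producing complete growth inhibition.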 A value given as a limit tells only on which side of the number the result lay.

For `COC(=O)C1CCc2c1c(=O)n1c([nH]c3ccccc31)c2C#N` (centres undefined), the TGI in the assay with LXFL 529 NSCLC, with HCT-116 colon, in the assay with HCT-15 colon, with DMS 114 small cell lung, in the assay on DMS 273 small cell lung and in the assay with XF 498 CNS was > 100 µM throughout. Moreover, the TGI in the assay with OVCAR-4 ovarian, with DLD-1 colon, in the assay with RXF 393 renal, with SNB-78 CNS, in the assay on SNB-75 CNS and in the assay with SK-MEL-28 melanoma was > 100 µM in each case. Moreover, the TGI with KM20L2 colon, in the assay with MALME-3M melanoma, with HOP-18 NSCLC, in the assay with M19-MEL melanoma and in the assay with HT29 colon was > 100 µM throughout.
As to `Nc1nc2c3nc(Nc4ccccc4)sc3nc(=S)n2c2sc(Nc3ccccc3)nc12`, the TGI is 29.4 µM in the assay on LXFL 529 NSCLC; > 100 µM in the assay on HCT-116 colon; > 100 µM in the assay with HCT-15 colon; > 100 µM in the assay on DMS 114 small cell lung; > 100 µM in the assay on DMS 273 small cell lung; 4.25 µM in the assay on XF 498 CNS. Besides, the TGI in the assay on OVCAR-4 ovarian, with DLD-1 colon, with RXF 393 renal, in the assay on SNB-78 CNS, with SNB-75 CNS and in the assay with SK-MEL-28 melanoma was > 100 µM throughout. Besides, the TGI with KM20L2 colon, in the assay with MALME-3M melanoma, in the assay on HOP-18 NSCLC, in the assay on M19-MEL melanoma and with HT29 colon was > 100 µM throughout.
